Patent publication US20170008928A1, “NOVEL PEPTIDES AND PEPTIDE DERIVATIVES AND USES THEREOF” (Novo Nordisk A/S, priority 2015, published 2017)
Read-outs that look alike come from different tables or passages of the source. Non-standard residues stand in square brackets, D forms with d. Residues, ends and D or L forms follow the SMILES beside them. Phe(4-CH2SO3H) = N[C@@H](Cc1ccc(CS(=O)(=O)O)cc1)C(=O)O; sY = N[C@@H](Cc1ccc(OS(=O)(=O)O)cc1)C(=O)O; NMeF = CN[C@@H](Cc1ccccc1)C(=O)O; dNMeD = CN[C@H](CC(=O)O)C(=O)O; Nle = CCCC[C@H](N)C(=O)O

Key:
[1] = molecular target: T1, human cholecystokinin-2 receptor (CCK-2R) (Homo sapiens, UniProt P32239); assay: In vitro receptor binding to CCK-2R, SPA displacement of [125I]-CCK-8s from plasma membranes
T1 construct: host or cells: 1321-N1 cells (plasma membranes prepared by Evotec AG Hamburg)
T1 sequence (P32239 1-447): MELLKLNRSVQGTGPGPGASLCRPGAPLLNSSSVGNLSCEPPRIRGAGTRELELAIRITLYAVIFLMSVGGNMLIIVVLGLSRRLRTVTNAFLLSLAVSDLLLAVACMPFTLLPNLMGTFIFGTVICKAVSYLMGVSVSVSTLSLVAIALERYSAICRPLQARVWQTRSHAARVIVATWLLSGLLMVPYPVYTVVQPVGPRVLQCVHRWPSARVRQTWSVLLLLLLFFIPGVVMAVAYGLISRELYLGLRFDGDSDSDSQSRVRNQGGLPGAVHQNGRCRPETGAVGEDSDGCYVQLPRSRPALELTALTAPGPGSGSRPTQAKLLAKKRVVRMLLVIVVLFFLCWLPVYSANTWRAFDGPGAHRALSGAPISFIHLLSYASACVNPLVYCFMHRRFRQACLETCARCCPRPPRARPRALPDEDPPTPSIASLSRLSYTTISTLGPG
Method: The in vitro binding affinity is a measure of the strength of attraction between a receptor and its ligand.
Displacement of radio ligand was measured as reduction in light emission from SPA beads.
The cells used in these assays were 1321-N1 cells stably expressing the CCK-1R or the CCK-2R (Perkin Elmer product numbers ES-530-A and ES-531-A, respectively see www.perkinelmer.com/Catalog/Product/ID/ES-530-A or -ES-531-A, respectively).
The cells were cultured in an incubator (95% RH (relative humidity), 5% (of standard atmospheric pressure) CO2, 37° C.) in cell culture medium (DMEM (Lonza catalogue BE-12-604F/U1), with 10% (v/v) Foetal Calf Serum (FCS, Gibco catalogue 16140-071), 1% (w/w) Sodium pyruvate (Gibco catalogue 11360-039), 500 μg/ml Geneticin® (G418) (Gibco catalogue 10131-027), 25 μg/ml Zeocin™ (Invitrogen catalogue R250-05), 1% (w/w) Pen/Strep (Gibco catalogue 15140-122)).
Plasma membranes were prepared by Evotec AG Hamburg by use of the ParrBomb (#4635, Parr Instrument Company). Cells were lysed with a lysis buffer (50 mM Tris, 2.5 mM EDTA, pH7) with added protease inhibitors (Complete Proteaseinhibitors EDTA-free (#05056489001, Roche), 1 tablet per 50 mL lysis buffer). The membrane fraction was separated by centrifugation. First, the cell lysate was centrifuged at 1000×g for 10 minutes at 4° C. The pellet was discarded and the supernatant was then centrifuged at 100.000×g for 30 minutes at 4° C. The supernatant was discarded and the pellet was re-suspended in 1 ml/5×10^8 cells ice cold membrane buffer (50 mM Tris, 320 mM Sucrose and Complete Proteaseinhibitors EDTA-free (#05056489001, Roche); pH7.4) and homogenised with dounce homogeniser. The protein concentration was determined using the Pierce™ BCA Protein Assay Kit according to kit manual, and the membrane preparation was adjust to the desired protein concentration with membrane buffer and aliquoted into pre-cooled tubes, snap-frozen in liquid nitrogen, and stored at −80° C.
CCK receptor binding assays were performed in 96-well Optiplates (Cat #6005290, PerkinElmer, Waltham, Mass., USA) in a total volume of 200 μl per well. CCK derivatives in 80% DMSO stock solutions of 800 μM were serially diluted […] in assay buffer (50 mM Tris/HCl, 4.5 mM MgCl2, […], 0.02% Tween 20, 0.25% ovalbumin, 0.1% pluronic F-68, pH 7.4) to final assay concentrations ranging from 10^−5 M (ten μM) to 10^−12 M (one pM).
Fifty μl of reference or test compounds were added to the Optiplates (using technical duplicates, i.e. two wells of each sample, one data point being the average of two wells), followed by addition of 150 μl of the mixture of SPA bead, radio ligand, and plasma membrane. The plates were sealed and incubated in the dark at +22° C. for 2 hours on a IKA MTS plate shaker (IKA-Werke D-79219 Staufen) set at 300 rpm and thereafter centrifuged at 1500 rpm for 10 minutes in a Heraeus Multifuge 3s centrifuge. SPA bead light emission was measured in a TopCount NXT (PerkinElmer) for 2 min/well after a delay of 60 min.
As a measure of compound affinity, calculations were performed in order to determine the half maximal inhibitory concentration (the IC50 value).
The data from the TopCounter were given as counts per minute (CPM). The CPM was plotted as a function of the concentration of compound. Dose-response curves were obtained, and IC50 values were calculated, by a nonlinear three-parameter logistic equation (log(agonist) vs response) with hillslope=−1, and shared top and bottom using the software programme GraphPad Prism v 6.0 (Graph Pad software, La Jolla, Calif., USA). The highest dose tested was 10^−5 M (1×10^7 pM).
The preference of a specific compound for the CCK-1 receptor, or the CCK-1R selectivity, may be defined as IC50 (CCK-2R)/IC50 (CCK-1R).
A minimum of three biological replicates was measured for each test compound on separate assay plates.

[2] = molecular target: T1, human cholecystokinin-2 receptor (CCK-2R); assay: In vitro potency on CCK-2R, whole cell functional assay (IP1 accumulation, IP-One HTRF); assay type: cell-based
[3] = displacement of [125I]-CCK-8s, plasma membranes of 1321-N1 cells expressing CCK-2R, highest dose tested 1×10^7 pM, read-out: IC50 (CCK-2R)
[4] = 1321-N1 cells stably expressing CCK-2R, IP1 accumulation, highest dose tested 1×10^6 pM, read-out: EC50 (CCK-2R)

Row | IC50 [1, 3] [µM] | EC50 [2, 4] [µM] | SMILES | IC50 [1] [µM] | EC50 [2] [µM]
1 | > 10 | > 1 | CC(C)C[C@H](NC(=O)[C@H](Cc1ccc(OS(=O)(=O)O)cc1)NC(=O)[C@H](CCC(=O)O)NC(=O)COCCOCCNC(=O)COCCOCCNC(=O)CC[C@H](NC(=O)CCCCCCCCCCCCCCCCC(=O)O)C(=O)O)C(=O)NCC(=O)N[C@@H](Cc1c[nH]c2ccccc12)C(=O)N[C@@H](CCC(N)=O)C(=O)N(C)[C@H](CC(=O)O)C(=O)N[C@@H](Cc1ccccc1)C(N)=O [Example 41, 2-[2-[2-[[2-[2-[2-[[(4S)-4-Carboxy-4-(17-carboxyheptadecanoylamino)butanoyl]amino]ethoxy]ethoxy]acetyl]amino]ethoxy]ethoxy]acetyl-Glu-sTyr-Leu-Gly-Trp-Gln-DMeAsp-Phe-amide] |  | 
2 | > 10 | > 1 | CCCC[C@H](NC(=O)[C@@H](N)Cc1ccc(OS(=O)(=O)O)cc1)C(=O)NCC(=O)N[C@@H](Cc1c[nH]c2ccccc12)C(=O)N[C@@H](CCCC)C(=O)N(C)[C@H](CC(=O)O)C(=O)N(C)[C@@H](Cc1ccccc1)C(N)=O [Example 72, sTyr-Nle-Gly-Trp-Nle-DMeAsp-MePhe-amide] (H-[sY][Nle]GW[Nle][dNMeD][NMeF]-NH2; N-terminus assumed) |  | 
3 | > 10 | > 1 | CCCC[C@H](NC(=O)[C@H](Cc1c[nH]c2ccccc12)NC(=O)CNC(=O)[C@H](CC(C)C)NC(=O)[C@H](Cc1ccc(OS(=O)(=O)O)cc1)NC(=O)[C@H](N)CCC(=O)O)C(=O)N(C)[C@H](CC(=O)O)C(=O)N(C)[C@@H](Cc1ccccc1)C(N)=O [Example 87, DGlu-sTyr-Leu-Gly-Trp-Nle-DMeAsp-MePhe-amide] (H-[dE][sY]LGW[Nle][dNMeD][NMeF]-NH2) |  | 

Second part, the compound before the results:

Row | SMILES | IC50 [1, 3] [µM] | EC50 [2, 4] [µM] | IC50 [1] [µM] | EC50 [2] [µM]
4 | CCCC[C@H](NC(=O)[C@H](Cc1c[nH]c2ccccc12)NC(=O)CNC(=O)[C@H](CC(C)C)NC(=O)[C@H](Cc1ccc(CS(=O)(=O)O)cc1)NC(=O)[C@@H](N)CC(=O)O)C(=O)N(C)[C@H](CC(=O)O)C(=O)N(C)[C@@H](Cc1ccccc1)C(N)=O [Example 57, Asp-Phe(4-sulfomethyl)-Leu-Gly-Trp-Nle-DMeAsp-MePhe-amide] (H-D[Phe(4-CH2SO3H)]LGW[Nle][dNMeD][NMeF]-NH2) | > 10 | > 1 |  | 
5 | CC[C@H](C)[C@H](NC(=O)[C@H](Cc1c[nH]c2ccccc12)NC(=O)CNC(=O)[C@H](CC(C)C)NC(=O)[C@H](Cc1ccc(OS(=O)(=O)O)cc1)NC(=O)[C@@H](N)CC(=O)O)C(=O)N(C)[C@H](CC(=O)O)C(=O)N(C)[C@@H](Cc1ccccc1)C(N)=O [Example 61, Asp-sTyr-Leu-Gly-Trp-Ile-DMeAsp-MePhe-amide] (H-D[sY]LGWI[dNMeD][NMeF]-NH2) |  |  | 6.1 | > 1
6 | CC(C)C[C@H](NC(=O)[C@H](Cc1ccc(OS(=O)(=O)O)cc1)NC(=O)[C@@H](N)CC(=O)O)C(=O)NCC(=O)N[C@@H](Cc1c[nH]c2ccccc12)C(=O)N1CCC[C@H]1C(=O)N(C)[C@H](CC(=O)O)C(=O)N(C)[C@@H](Cc1ccccc1)C(N)=O [Example 66, Asp-sTyr-Leu-Gly-Trp-Pro-DMeAsp-MePhe-amide] (H-D[sY]LGWP[dNMeD][NMeF]-NH2) |  |  | > 10 | > 1
7 | CCCC[C@H](NC(=O)[C@H](Cc1c[nH]c2ccccc12)NC(=O)CNC(=O)[C@H](CCCCN)NC(=O)[C@H](Cc1ccc(OS(=O)(=O)O)cc1)NC(=O)[C@@H](N)CC(=O)O)C(=O)N(C)[C@H](CC(=O)O)C(=O)N(C)[C@@H](Cc1ccccc1)C(N)=O [Example 67, Asp-sTyr-Lys-Gly-Trp-Nle-DMeAsp-MePhe-amide] (H-D[sY]KGW[Nle][dNMeD][NMeF]-NH2) | > 10 | > 1 |  | 
8 | CCCC[C@H](NC(=O)[C@H](Cc1c[nH]c2ccccc12)NC(=O)CNC(=O)[C@@H](NC(=O)[C@H](Cc1ccc(OS(=O)(=O)O)cc1)NC(=O)[C@@H](N)CC(=O)O)[C@@H](C)CC)C(=O)N(C)[C@H](CC(=O)O)C(=O)N(C)[C@@H](Cc1ccccc1)C(N)=O [Example 81, Asp-sTyr-Ile-Gly-Trp-Nle-DMeAsp-MePhe-amide] (H-D[sY]IGW[Nle][dNMeD][NMeF]-NH2) | > 10 | > 1 |  | 
9 | CCCC[C@H](NC(=O)[C@H](Cc1c[nH]c2ccccc12)NC(=O)CNC(=O)[C@H](Cc1c[nH]cn1)NC(=O)[C@H](Cc1ccc(OS(=O)(=O)O)cc1)NC(=O)[C@@H](N)CC(=O)O)C(=O)N(C)[C@H](CC(=O)O)C(=O)N(C)[C@@H](Cc1ccccc1)C(N)=O [Example 82, Asp-sTyr-His-Gly-Trp-Nle-DMeAsp-MePhe-amide] (H-D[sY]HGW[Nle][dNMeD][NMeF]-NH2) | > 10 | > 1 |  | 
10 | CC(C)C[C@H](NC(=O)[C@H](Cc1ccc(OS(=O)(=O)O)cc1)NC(=O)[C@@H](N)CCC(=O)O)C(=O)NCC(=O)N[C@@H](Cc1c[nH]c2ccccc12)C(=O)N[C@@H](CCC(N)=O)C(=O)N(C)[C@H](CC(=O)O)C(=O)N[C@@H](Cc1ccccc1)C(N)=O [Example 85, Glu-sTyr-Leu-Gly-Trp-Gln-DMeAsp-Phe-amide] | > 10 | > 1 |  | 
11 | CC(C)C[C@H](NC(=O)[C@H](Cc1ccc(OS(=O)(=O)O)cc1)NC(=O)[C@@H](N)CCC(=O)O)C(=O)NCC(=O)N[C@@H](Cc1c[nH]c2ccccc12)C(=O)N[C@@H](CCC(N)=O)C(=O)N(C)[C@H](CC(=O)O)C(=O)N(C)[C@@H](Cc1ccccc1)C(N)=O [Example 86, Glu-sTyr-Leu-Gly-Trp-Gln-DMeAsp-MePhe-amide] | > 10 | > 1 |  | 
